Patent publication US20230159453A1 (COCRYSTAL PHARMA, INC., priority 2020, published 2023)

biological target: SARS2 protease (Severe acute respiratory syndrome coronavirus 2, UniProt P0DTD1); test: SARS-CoV-2 protease inhibition assay (SARS2 FRET protease assay); format: biochemical; settings: SARS-CoV-2 protease 25 nM, FRET, peptide substrate 1.3 μM, 30 minutes at 30° C., compounds 20 μM to 1.0 nM; read-out: IC50

Q: `CCNC(=O)C(=O)[C@H](C[C@@H]1CCNC1=O)NC(=O)[C@H](CC1CCCCC1)NC(=O)OC(c1ccccc1)C(C)(C)c1cccc(Cl)c1` (stereo partly drawn) [Compound C211, 2-(3-Chlorophenyl)-2-methyl-1-phenylpropyl ((S)-3-cyclohexyl-1-(((S)-4-(ethylamino)-3,4-dioxo-1-((S)-2-oxopyrrolidin-3-yl)butan-2-yl)amino)-1-oxopropan-2-yl) carbamate] was tested. Which IC50 did it give?
A: 0.339 µM

Q: `CC(C)(C)C(=O)N1CCC2(CC1)CC(CC(C=O)NC(=O)[C@H](CC1CCCCC1)NC(=O)OCc1cccc(Cl)c1)C(=O)N2` (stereo partly drawn) [Compound C212, 3-Chlorobenzyl ((2S)-3-cyclohexyl-1-oxo-1-((1-oxo-3-(2-oxo-8-pivaloyl-1,8-diazaspiro[4.5]decan-3-yl)propan-2-yl)amino)propan-2-yl)carbamate] was tested. Which IC50 did it give?
A: 0.194 µM

Q: How did the IC50 turn out when `O=C(N[C@@H](CC1CCCCC1)C(=O)N[C@@H](C[C@@H]1CCNC1=O)C(=O)C(=O)NC1CC1)OC(c1cccc(Cl)c1)C1(c2cccc(Cl)c2)CC1` (some centres unmarked) [Compound C213] was run?
A: 0.257 µM

Q: For `COc1cccc2[nH]c(C(=O)N[C@@H](CC(C)C)C(=O)NC(C=O)CC3CC4(CCCCC4)NC3=O)cc12` (stereo partly drawn) [Compound C214, 4-Methoxy-N-((2S)-4-methyl-1-oxo-1-((1-oxo-3-(2-oxo-1-azaspiro[4.5]decan-3-yl)propan-2-yl)amino)pentan-2-yl)-1H-indole-2-carboxamide], which IC50 is on record?
A: 0.011 µM

Q: With `CC(C)C(OC(=O)N[C@@H](CC1CCCCC1)C(=O)N[C@@H](C[C@@H]1CCNC1=O)C(=O)C(N)=O)c1ccccc1` (stereo partly drawn) [Compound C216, 2-Methyl-1-phenylpropyl ((S)-1-(((S)-4-amino-3,4-dioxo-1-((S)-2-oxopyrrolidin-3-yl)butan-2-yl)amino)-3-cyclohexyl-1-oxopropan-2-yl)carbamate] as the compound, how does the IC50 read?
A: 3.1 µM

Q: How did the IC50 turn out when `CC1(C)CC(CC(NC(=O)[C@H](CC2CCCCC2)NC(=O)OC(Cc2cccc(Cl)c2)c2ccccc2)C(=O)C(N)=O)C(=O)N1` (stereo partly drawn) [Compound C217, 2-(3-Chlorophenyl)-1-phenylethyl ((2S)-1-((4-amino-1-(5,5-dimethyl-2-oxopyrrolidin-3-yl)-3,4-dioxobutan-2-yl)amino)-3-cyclohexyl-1-oxopropan-2-yl) carbamate] was run?
A: 3.99 µM

Q: For `CC(C)C[C@H](NC(=O)OC(c1ccccc1)C(C)(C)c1cccc(Cl)c1)C(=O)NC(CC1CC(C)(C)NC1=O)C(=O)C(N)=O` (stereo partly drawn) [Compound C218, 2-(3-Chlorophenyl)-2-methyl-1-phenylpropyl ((2S)-1-((4-amino-1-(5,5-dimethyl-2-oxopyrrolidin-3-yl)-3,4-dioxobutan-2-yl)amino)-4-methyl-1-oxopentan-2-yl)carbamate], which IC50 is on record?
A: 1.85 µM

Q: For `CC1(C)CC(CC(NC(=O)[C@H](CC2CCCCC2)NC(=O)OC(c2cccc(F)c2)C(C)(C)c2cccc(Cl)c2)C(=O)C(N)=O)C(=O)N1` (stereo partly drawn) [Compound C220, 2-(3-Chlorophenyl)-1-(3-fluorophenyl)-2-methylpropyl ((2S)-1-((4-amino-1-(5,5-dimethyl-2-oxopyrrolidin-3-yl)-3,4-dioxobutan-2-yl)amino)-3-cyclohexyl-1-oxopropan-2-yl)carbamate], which IC50 is on record?
A: 1.83 µM

Q: Which IC50 does the source give for `CC1(C)CC(CC(C=O)NC(=O)[C@H](CC2CCCCC2)NC(=O)OC(c2cccc(F)c2)C(C)(C)c2cccc(Cl)c2)C(=O)N1` (stereo partly drawn) [Compound C222, 2-(3-Chlorophenyl)-1-(3-fluorophenyl)-2-methylpropyl ((2S)-3-cyclohexyl-1-((1-(5,5-dimethyl-2-oxopyrrolidin-3-yl)-3-oxopropan-2-yl)amino)-1-oxopropan-2-yl)carbamate] here?
A: 0.235 µM

Q: Which IC50 does the source give for `O=CC(CC1CC2(CCCCC2)NC1=O)NC(=O)[C@H](CC1CCCCC1)NC(=O)OC1CCCC1Cc1cccc(Cl)c1` (stereo partly drawn) [Compound C223, 2-(3-Chlorobenzyl)cyclopentyl ((2S)-3-cyclohexyl-1-oxo-1-((1-oxo-3-(2-oxo-1-azaspiro[4.5]decan-3-yl)propan-2-yl)amino)propan-2-yl)carbamate] here?
A: 0.781 µM

Q: For `O=C[C@H](C[C@@H]1CCNC1=O)NC(=O)[C@H](CC1CCCCC1)NC(=O)O[C@H]1CCC[C@H]1Cc1cccc(Cl)c1` [Compound C224, (1S,2S)-2-(3-Chlorobenzyl) cyclopentyl ((S)-3-cyclohexyl-1-oxo-1-(((S)-1-oxo-3-((S)-2-oxopyrrolidin-3-yl)propan-2-yl)amino)propan-2-yl) carbamate], which IC50 is on record?
A: 0.183 µM

Q: For `O=CC(CC1CC2(CCOCC2)NC1=O)NC(=O)[C@H](CC1CCCCC1)NC(=O)OC1CCCC1Cc1cccc(Cl)c1` (stereo partly drawn) [Compound C225, 2-(3-chlorobenzyl)cyclopentyl ((2S)-3-cyclohexyl-1-oxo-1-((1-oxo-3-(2-oxo-8-oxa-1-azaspiro[4.5]decan-3-yl)propan-2-yl)amino)propan-2-yl)carbamate], which IC50 is on record?
A: 1.01 µM

Q: `CC(C)C[C@H](NC(=O)OC(c1ccc(Cl)cc1)C(C)(C)c1cccc(Cl)c1)C(=O)N[C@@H](C[C@@H]1CCNC1=O)C(=O)C(=O)NC1CC1` (stereo partly drawn) [Compound C226, 2-(3-chlorophenyl)-1-(4-chlorophenyl)-2-methylpropyl ((S)-1-(((S)-4-(cyclopropylamino)-3,4-dioxo-1-((S)-2-oxopyrrolidin-3-yl)butan-2-yl)amino)-4-methyl-1-oxopentan-2-yl)carbamate] was tested. Which IC50 did it give?
A: 0.057 µM

Q: Which IC50 does the source give for `COc1cccc2[nH]c(C(=O)N[C@@H](CC(C)C)C(=O)NC(CC3CC4(CCCCC4)NC3=O)C(=O)CCl)cc12` (stereo partly drawn) [Compound C227, N-((2S)-1-((4-chloro-3-oxo-1-(2-oxo-1-azaspiro[4.5]decan-3-yl)butan-2-yl)amino)-4-methyl-1-oxopentan-2-yl)-4-methoxy-1H-indole-2-carboxamide] here?
A: 0.059 µM

Q: With `O=C(O)C(=O)C(CC1CC2(CCCCC2)NC1=O)NC(=O)[C@H](CC1CCCCC1)NC(=O)c1cc2ccccc2[nH]1` (stereo partly drawn) [Compound C228, 3-((S)-3-Cyclohexyl-2-(1H-indole-2-carboxamido)propanamido)-2-oxo-4-(2-oxo-1-azaspiro[4.5]decan-3-yl)butanoic acid] as the compound, how does the IC50 read?
A: 0.12 µM

Q: How did the IC50 turn out when `O=CC(CC1CC2(CCC2)NC1=O)NC(=O)[C@H](CC1CCCCC1)NC(=O)OCc1cccc(Cl)c1` (stereo partly drawn) [Compound C229, 3-Chlorobenzyl ((2S)-3-cyclohexyl-1-oxo-1-((1-oxo-3-(6-oxo-5-azaspiro[3.4]octan-7-yl)propan-2-yl)amino)propan-2-yl)carbamate] was run?
A: 0.0008 µM

Q: `CC(C)C[C@H](NC(=O)OC(Cc1ccccc1)C(C)C)C(=O)N[C@H](C=O)C[C@@H]1CCNC1=O` (stereo partly drawn) [Compound C230, 3-Methyl-1-phenylbutan-2-yl ((S)-4-methyl-1-oxo-1-(((S)-1-oxo-3-((S)-2-oxopyrrolidin-3-yl)propan-2-yl)amino)pentan-2-yl)carbamate] was tested. Which IC50 did it give?
A: 0.07 µM

Q: With `CC(C)(C)C(OC(=O)N[C@@H](CC1CCCCC1)C(=O)N[C@@H](C[C@@H]1CCNC1=O)C(=O)C(N)=O)c1ccccc1` (stereo partly drawn) [Compound C231, 2,2-Dimethyl-1-phenylpropyl ((S)-1-(((S)-4-amino-3,4-dioxo-1-((S)-2-oxopyrrolidin-3-yl)butan-2-yl)amino)-3-cyclohexyl-1-oxopropan-2-yl) carbamate] as the compound, how does the IC50 read?
A: 1.8 µM

Q: For `CCOC(=O)/C=C/[C@H](C[C@@H]1CCNC1=O)NC(=O)[C@H](CC(C)C)NC(=O)OC(Cc1ccccc1)c1ccccc1` (stereo partly drawn) [Compound C232, Ethyl (4S, E)-4-((2S)-2-(((1,2-diphenylethoxy)carbonyl)amino)-4-methylpentanamido)-5-((S)-2-oxopyrrolidin-3-yl) pent-2-enoate], which IC50 is on record?
A: 15.1 µM

Q: `COc1cccc2[nH]c(C(=O)N[C@@H](CC(C)C)C(=O)NC(CC3CC4(CCCCC4)NC3=O)C(=O)CO)cc12` (stereo partly drawn) [Compound C233, N-((2S)-1-((4-hydroxy-3-oxo-1-(2-oxo-1-azaspiro[4.5]decan-3-yl)butan-2-yl)amino)-4-methyl-1-oxopentan-2-yl)-4-methoxy-1H-indole-2-carboxamide] was tested. Which IC50 did it give?
A: 0.02 µM

Q: How did the IC50 turn out when `COc1cccc2[nH]c(C(=O)N[C@@H](CC(C)C)C(=O)NC(CC3CC4(CCCCC4)NC3=O)C(=O)C(=O)NC3CC3)cc12` (stereo partly drawn) [Compound C234, N-((2S)-1-((4-(cyclopropylamino)-3,4-dioxo-1-(2-oxo-1-azaspiro[4.5]decan-3-yl)butan-2-yl)amino)-4-methyl-1-oxopentan-2-yl)-4-methoxy-1H-indole-2-carboxamide] was run?
A: 0.0008 µM

Q: Which IC50 does the source give for `CC(C)(c1cccc(Cl)c1)C(OC(=O)N[C@@H](CC1CCCCC1)C(=O)N[C@@H](C[C@@H]1CCNC1=O)C(=O)C(=O)O)c1ccc2ccccc2c1` (stereo partly drawn) [Compound C235, (3S)-3-((2S)-2-(((2-(3-Chlorophenyl)-2-methyl-1-(naphthalen-2-yl)propoxy)carbonyl)amino)-3-cyclohexylpropanamido)-2-oxo-4-((S)-2-oxopyrrolidin-3-yl)butanoic acid] here?
A: 0.071 µM

Q: How did the IC50 turn out when `CC(C)C[C@H](NC(=O)OC(c1ccccc1)C(C)(C)c1cccc(Cl)c1)C(=O)N[C@@H](C[C@@H]1CCNC1=O)C(=O)CO` (stereo partly drawn) [Compound C236, 2-(3-Chlorophenyl)-2-methyl-1-phenylpropyl ((S)-1-(((S)-4-hydroxy-3-oxo-1-((S)-2-oxopyrrolidin-3-yl)butan-2-yl)amino)-4-methyl-1-oxopentan-2-yl)carbamate] was run?
A: 0.271 µM

Q: For `CC(C)C[C@H](NC(=O)OC(Cc1ccccc1)C1CCCCC1)C(=O)N[C@H](C=O)C[C@@H]1CCNC1=O` (stereo partly drawn) [Compound C237, 1-Cyclohexyl-2-phenylethyl ((S)-4-methyl-1-oxo-1-(((S)-1-oxo-3-((S)-2-oxopyrrolidin-3-yl)propan-2-yl)amino)pentan-2-yl)carbamate], which IC50 is on record?
A: 0.003 µM

Q: Which IC50 does the source give for `CC(C)C[C@H](NC(=O)OC(c1ccc(F)cc1)C(C)(C)c1cccc(Cl)c1)C(=O)N[C@H](C=O)C[C@@H]1CCNC1=O` (stereo partly drawn) [Compound C238, 2-(3-chlorophenyl)-1-(4-fluorophenyl)-2-methylpropyl ((S)-4-methyl-1-oxo-1-(((S)-1-oxo-3-((S)-2-oxopyrrolidin-3-yl)propan-2-yl)amino)pentan-2-yl)carbamate] here?
A: 0.0001 µM

Q: How did the IC50 turn out when `CC(C)C[C@H](NC(=O)OC1CCCC1Cc1cccc(Cl)c1)C(=O)N[C@@H](C[C@@H]1CCNC1=O)C(=O)NS(=O)(=O)C1CC1` (stereo partly drawn) [Compound C239, 2-(3-Chlorobenzyl) cyclopentyl ((S)-1-(((S)-1-(cyclopropanesulfonamido)-1-oxo-3-((S)-2-oxopyrrolidin-3-yl)propan-2-yl)amino)-4-methyl-1-oxopentan-2-yl) carbamate] was run?
A: > 20 µM
